Test results: patent US8552052B2, “Use of diindolylmethane-related indoles for the treatment and prevention of respiratory syncytial virus associated conditions” (BioResponse, L.L.C., priority 2004, dated 2013)
“Also recorded” adds a separate entry of the source.

Test system: RSV, strain A2
Test: Production of infectious RSV from infected A549 cells (plaque titer on HEp-2 monolayers)
Format: cell-based, Respiratory Syncytial Virus
Protocol: Cell Culture—A549 cells, a tumor cell line with properties of normal airway epithelial cells, were obtained from American Type Culture Collection (ATCC, Manassas, Va.) and incubated at 37° C. in 5% CO2. The cells were cultured in Eagle's minimum essential medium (MEM, Invitrogen) supplemented with 10% fetal bovine serum (HyClone, Logan, Utah) and […] gentamicin. The A549 cells were subcultured by harvesting in 0.12% trypsin no more than 20 times from stock originally designated at pass 70. To minimize effects of exogenous growth factors or cytokines in this system, the supplemented serum concentration was reduced to 0.5% 24 h prior to and during all experiments with RSV infection. […] RSV Virus—RSV, strain A2, was obtained from Advanced Biotechnologies Inc. (Columbia, Md.) and was used directly as supplied for all experiments. The viral preparation was tested to have a TCID50 titer of ˜1×10^9 in Hep-2 cells at 7 days. […] Levels of Production of Infectious RSV—Production of infectious RSV particles in A549 cell culture in the presence of various concentrations of DIM was measured using a method where the cell free media were titered for RSV infectious activity on a monolayer culture of Hep-2 cells. […] The plaques that appeared around 48 h of incubation were visualized by neutral red staining and counted.

Compound: c1ccc2c(Cc3c[nH]c4ccccc34)c[nH]c2c1 [DIM, 3,3′-diindolylmethane]
- RSV yield: viral replication and production of extracellular, progeny RSV viral particles (72 hour treatment of infected A549 cells, DIM 70, 210, 700 nM, LY294002 2 and 5 μM, FIG. 2): reduced production of infectious, progeny RSV virons; also recorded: significantly reduced viral replication and production of extracellular, progeny RSV viral particles
- Reduction of RSV replication by DIM compared with LY294002 (infected A549 cells, 72 h, nM DIM vs higher concentrations of LY294002): equal or greater to that caused by LY294002; also recorded: comparable to that seen with higher concentrations of LY294002
